Source: PMC4102788, “Linking off-target kinase pharmacology to the differential cellular effects observed among PARP inhibitors” (Oncotarget, 2014)

What was measured:
STAT3 phosphorilation = test system: STAT3 phosphorilation; set-up: method as in PMID 22678161; conditions: at 5 µM; cited from earlier work
[1] = 40 mg single daily dose; cited from earlier work
human ALK kinase = molecular target: T1, human ALK kinase (Homo sapiens, UniProt Q9UM73); experiment: Human ALK kinase in vitro inhibition assay (Cerep, LANCE); type: biochemical; conditions: human recombinant enzyme, 10 µM ATP
T1 construct: purchased Cerep (CRO that ran the assay) 2678 (768-alk)
Description: (§1) Rucaparib, veliparib and olaparib were purchased from Selleckchem. Kinase in vitro assays were perfomed at Cerep (www.cerep.fr) by measuring the phosphorylation of appropriate peptide substrates by human recombinant enzymes and using FRET as a detection method (a detailed description of each kinase assay is available in online supplementary data).
Human CDC7 kinase in vitro inhibition assay
All details for the CDC7 in vitro assay can be consulted in the Cerep Catalogue available online under references 2764 (749-cdc7): […]
http://www.cerep.fr/cerep/users/pages/catalog/Affiche_CondExp_Test.asp?test=2764 Evaluation of the effects of compounds on the activity of the human CDC7/ASK quantified by measuring the phosphorylation of the substrate […]
Ulight-[…] […]
(§2) labeled with europium chelate is added. After 60 more min, the fluorescence transfer is measured at λex=337 nm, λem=620 nm and λem=665 nm using a microplate reader (Envision, Perkin Elmer). The enzyme activity is determined by dividing the signal measured at λem=665 nm by that measured at λem=620 nm (ratio). The results are expressed as a percent inhibition of the control enzyme activity. […]
ALK quantified by measuring the phosphorylation of the substrate Ulight- […]
europium chelate is added. After 60 more min, the fluorescence transfer is measured at […]
λex=337 nm, λem=620 nm and λem=665 nm using a microplate reader (Envision, […]

human HIPK2 kinase = molecular target: T2, human HIPK2 kinase (Homo sapiens, UniProt Q9H2X6); experiment: Human HIPK2 kinase in vitro inhibition assay (Cerep, LANCE); type: biochemical; conditions: human recombinant enzyme, 10 µM ATP
T2 construct: purchased Cerep (CRO that ran the assay) 2915 (781-H2)
Description: as §1
Human HIPK2 kinase in vitro inhibition assay
All details for the HIPK2 in vitro assay can be consulted in the Cerep Catalogue available online under references 2915 (781-H2): http://www.cerep.fr/cerep/users/pages/catalog/Affiche_CondExp_Test.asp?test=2915 Evaluation of the effects of compounds on the activity of the human HIPK2 quantified by measuring the phosphorylation of the substrate Ulight- […]
-amide (MBP) using a human recombinant enzyme and the […]
as §2, with “mixture” for “labeled with europium chelate”, “incubated for 30 min at room temperature. […]” for “added.”

T2 sequence (Q9H2X6 whole entry): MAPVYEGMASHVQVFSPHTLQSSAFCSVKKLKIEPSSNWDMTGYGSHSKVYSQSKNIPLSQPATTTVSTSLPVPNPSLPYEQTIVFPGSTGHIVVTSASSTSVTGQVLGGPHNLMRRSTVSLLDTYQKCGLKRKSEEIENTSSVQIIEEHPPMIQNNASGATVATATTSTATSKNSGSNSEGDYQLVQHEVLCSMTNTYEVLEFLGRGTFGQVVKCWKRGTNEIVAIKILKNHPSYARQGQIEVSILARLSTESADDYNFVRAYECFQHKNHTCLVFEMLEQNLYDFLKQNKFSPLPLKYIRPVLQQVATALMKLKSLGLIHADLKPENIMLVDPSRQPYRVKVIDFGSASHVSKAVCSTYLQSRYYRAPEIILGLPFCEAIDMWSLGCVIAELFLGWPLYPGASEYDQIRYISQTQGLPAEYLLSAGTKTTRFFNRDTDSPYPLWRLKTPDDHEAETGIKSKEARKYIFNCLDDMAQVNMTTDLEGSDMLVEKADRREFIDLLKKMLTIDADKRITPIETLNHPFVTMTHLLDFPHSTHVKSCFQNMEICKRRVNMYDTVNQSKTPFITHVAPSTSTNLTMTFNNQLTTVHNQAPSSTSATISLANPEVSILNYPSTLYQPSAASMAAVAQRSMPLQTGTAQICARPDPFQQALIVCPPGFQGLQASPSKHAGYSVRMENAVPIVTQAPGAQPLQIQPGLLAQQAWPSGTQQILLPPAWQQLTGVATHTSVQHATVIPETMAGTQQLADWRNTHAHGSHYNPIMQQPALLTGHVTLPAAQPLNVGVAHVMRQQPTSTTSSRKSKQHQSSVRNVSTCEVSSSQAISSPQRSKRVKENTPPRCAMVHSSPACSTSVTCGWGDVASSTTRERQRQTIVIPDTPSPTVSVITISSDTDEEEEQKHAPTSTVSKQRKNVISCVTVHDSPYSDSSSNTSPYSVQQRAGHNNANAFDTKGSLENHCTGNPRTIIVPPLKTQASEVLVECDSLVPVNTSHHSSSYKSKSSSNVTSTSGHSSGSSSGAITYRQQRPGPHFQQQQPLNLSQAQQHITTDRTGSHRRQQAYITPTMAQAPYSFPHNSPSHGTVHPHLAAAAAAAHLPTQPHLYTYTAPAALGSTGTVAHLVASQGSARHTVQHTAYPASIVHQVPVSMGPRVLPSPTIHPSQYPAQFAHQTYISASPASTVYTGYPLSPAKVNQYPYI
T1 sequence (Q9UM73 19-1620): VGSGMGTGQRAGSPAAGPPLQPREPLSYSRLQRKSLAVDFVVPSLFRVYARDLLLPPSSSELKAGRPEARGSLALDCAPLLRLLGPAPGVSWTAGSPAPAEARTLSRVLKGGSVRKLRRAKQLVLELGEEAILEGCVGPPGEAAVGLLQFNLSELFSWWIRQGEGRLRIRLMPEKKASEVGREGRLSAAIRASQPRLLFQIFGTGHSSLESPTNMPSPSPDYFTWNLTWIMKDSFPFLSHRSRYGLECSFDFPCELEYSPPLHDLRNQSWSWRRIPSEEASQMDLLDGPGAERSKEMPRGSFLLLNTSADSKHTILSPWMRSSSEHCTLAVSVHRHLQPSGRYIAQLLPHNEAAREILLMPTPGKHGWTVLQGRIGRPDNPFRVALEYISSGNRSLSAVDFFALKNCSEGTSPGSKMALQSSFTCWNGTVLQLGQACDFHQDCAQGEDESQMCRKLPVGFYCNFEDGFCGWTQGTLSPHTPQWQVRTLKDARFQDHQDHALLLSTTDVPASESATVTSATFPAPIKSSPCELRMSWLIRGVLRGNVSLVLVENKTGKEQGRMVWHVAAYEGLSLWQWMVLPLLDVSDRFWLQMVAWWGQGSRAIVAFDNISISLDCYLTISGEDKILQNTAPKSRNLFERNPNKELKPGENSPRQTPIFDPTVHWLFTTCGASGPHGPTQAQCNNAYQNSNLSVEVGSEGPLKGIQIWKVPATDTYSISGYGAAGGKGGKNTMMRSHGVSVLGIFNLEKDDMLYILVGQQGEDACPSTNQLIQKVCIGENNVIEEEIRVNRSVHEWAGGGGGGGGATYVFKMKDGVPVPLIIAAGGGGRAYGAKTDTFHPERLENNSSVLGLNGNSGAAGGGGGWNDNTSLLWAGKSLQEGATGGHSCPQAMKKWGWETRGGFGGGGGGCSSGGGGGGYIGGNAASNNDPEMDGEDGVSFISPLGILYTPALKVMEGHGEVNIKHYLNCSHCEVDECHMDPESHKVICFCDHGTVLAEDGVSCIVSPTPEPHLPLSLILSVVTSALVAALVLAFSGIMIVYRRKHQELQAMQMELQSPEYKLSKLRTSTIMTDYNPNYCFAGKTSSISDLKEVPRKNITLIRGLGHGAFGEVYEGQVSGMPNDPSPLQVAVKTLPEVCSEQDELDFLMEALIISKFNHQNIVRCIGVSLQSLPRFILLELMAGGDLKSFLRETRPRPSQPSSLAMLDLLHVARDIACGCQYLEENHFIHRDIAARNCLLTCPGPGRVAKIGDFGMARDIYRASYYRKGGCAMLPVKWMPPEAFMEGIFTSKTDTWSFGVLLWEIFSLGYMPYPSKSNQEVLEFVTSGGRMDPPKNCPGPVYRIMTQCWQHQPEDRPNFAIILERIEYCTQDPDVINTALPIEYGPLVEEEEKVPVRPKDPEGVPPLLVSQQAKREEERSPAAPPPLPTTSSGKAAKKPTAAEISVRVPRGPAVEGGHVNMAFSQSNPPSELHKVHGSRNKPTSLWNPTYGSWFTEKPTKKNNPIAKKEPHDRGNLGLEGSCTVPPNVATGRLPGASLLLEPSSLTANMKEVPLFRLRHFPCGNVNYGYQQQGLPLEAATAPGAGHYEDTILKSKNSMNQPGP

IC50 (human ALK kinase): 18 µM
IC50 (human HIPK2 kinase): 4.4 µM
Compound: CNCc1ccc(-c2[nH]c3cc(F)cc4c3c2CCNC4=O)cc1 [rucaparib]
effect on STAT3 phosphorilation (STAT3 phosphorilation): inhibit STAT3 phosphorilation
highest peak plasma concentration [1]: around 2 µM
